Source: the Deep4Chem optical property database
Values belong to the compound of their own block, whether it stands above or below them.

Assay: solvent given as SMILES

Compound: O=P1(c2ccccc2)C(c2cc(C(F)(F)F)cc(C(F)(F)F)c2)=Cc2c3ccc4cccc5ccc(c6cc(-c7ccccc7)n1c26)c3c45 (stereo not drawn)
absorption maximum (in C1CCCCC1): 451 nm
absorption maximum (in C1CCOC1): 451 nm
absorption maximum (in C1COCCO1): 448 nm
absorption maximum (in CC#N): 445 nm
absorption maximum (in CC(C)=O): 446 nm
absorption maximum (in CO): 444 nm
absorption maximum (in Cc1ccccc1): 453 nm
absorption maximum (in ClC(Cl)Cl): 452 nm
absorption maximum (in ClCCl): 450 nm

Compound: CC(C)(C)c1ccc(N(c2ccc(C(C)(C)C)cc2)c2ccc3c(N(c4ccc(C(C)(C)C)cc4)c4ccc(C(C)(C)C)cc4)cc4c5cc(N(c6ccc(C(C)(C)C)cc6)c6ccc(C(C)(C)C)cc6)ccc5c(N(c5ccc(C(C)(C)C)cc5)c5ccc(C(C)(C)C)cc5)cc4c3c2)cc1
absorption maximum (in ClCCl): 433 nm

Compound: COc1cc2c(cc1-c1ccc(C)cc1)Cc1c3c(c4c(c1-2)-c1cc(OC)c(-c2ccc(C)cc2)cc1C4)C(=O)N(CCC(C)C)C3=O
absorption maximum (in C1CCOC1): 411 nm

Compound: CN(C)c1cc2c(cc1F)c(=O)c1cc(F)c(N)cc1n2C
absorption maximum (in CCO): 369 nm

Compound: CCCCCCCCCCn1nnc(-c2ccc(C#Cc3ccc(C#Cc4ccc(-c5nnn(CCCCCCCCCC)n5)cc4)c4nc5c6ccccc6c6ccccc6c5nc34)cc2)n1
absorption maximum (in C1CCOC1): 428 nm
absorption maximum (in Cc1ccccc1): 428 nm
absorption maximum (in ClCCl): 428 nm

Compound: CC(=O)OC[C@@H]1O[C@H](n2cnc3c2N=CN2Cc4c[n+](C)c(C)nc4N=C32)[C@@H](O)[C@H]1O
absorption maximum (in CC#N): 392 nm
absorption maximum (in CCO): 389 nm
absorption maximum (in O): 383 nm

Compound: CCCCCCCCC1(CCCCCCCC)c2ccccc2-c2ccc(N(c3ccc(-n4c5ccccc5c5ccccc54)cc3)c3ccc4c(c3)C(CCCCCCCC)(CCCCCCCC)c3ccccc3-4)cc21
absorption maximum (in C1CCOC1): 347 nm
absorption maximum (in CC#N): 345 nm
absorption maximum (in CC(C)=O): 345 nm
absorption maximum (in CCCCCC): 347 nm
absorption maximum (in CCCCOCCCC): 347 nm
absorption maximum (in CCN(CC)CC): 347 nm
absorption maximum (in CCOC(C)=O): 345 nm
absorption maximum (in CCOCC): 345 nm
absorption maximum (in CN(C)C=O): 345 nm
absorption maximum (in Cc1ccccc1): 348 nm
absorption maximum (in ClCCl): 348 nm

Compound: COc1ccc(C2=C3C(C)=CC(C)=[N+]3[B-](F)(F)n3c(C)cc(C)c32)cc1
absorption maximum (in Cc1ccccc1): 504 nm

Compound: COc1ccc(C2=C(c3ccc(F)cc3)C(c3ccccc3)=[N+]3C2=Nc2c(-c4ccc(OC)cc4)c(-c4ccc(F)cc4)c(-c4ccccc4)n2[B-]3(F)F)cc1
absorption maximum (in Cc1ccccc1): 653 nm

Compound: COc1ccc(-c2nc(-c3ccccc3)c(N(C)C)[se]2)cc1
absorption maximum (in ClC(Cl)Cl): 339 nm

Compound: Cc1ccc(/C2=c3\cc/c(o3)=C(\c3ccc(C)cc3)c3ccc([nH]3)-c3ccc4n3[P-](=O)(=O)[N+]3=C(C=CC3=C4c3ccco3)c3ccc2[nH]3)cc1
absorption maximum (in ClC(Cl)Cl): 744 nm

Compound: c1ccc2c(c1)c1ccccc1n2-c1ccc(-c2nnc(-c3ccc(-n4c5ccccc5c5ccccc54)cc3)o2)cc1
absorption maximum (in Cc1ccccc1): 343 nm

Now from value to compound:

absorption maximum (in ClCCl): 388 nm
Compound: FC(F)(F)c1ccc(B2c3ccccc3Nc3ccccc32)c(C(F)(F)F)c1

absorption maximum (in CC#N): 337 nm
absorption maximum (in CCCCCCCCCCCCCCCC): 325 nm
absorption maximum (in CO): 345 nm
absorption maximum (in ClC(Cl)Cl): 336 nm
absorption maximum (in c1ccccc1): 334 nm
Compound: O=C1c2ccccc2NC(c2ccccc2)N1Cc1ccccc1 (stereo not drawn)

absorption maximum (in CC#N): 597 nm
absorption maximum (in CCO): 601 nm
absorption maximum (in ClCCl): 610 nm
absorption maximum (in O): 579 nm
Compound: C=CCNc1ccc2c(ccc3oc4cc(=[N+](C)C)ccc-4nc32)c1

absorption maximum (in CCO): 369 nm
Compound: CCN(CC)c1cc(F)c(C(=O)c2cc(F)c(N(CC)CC)cc2F)cc1F

absorption maximum (in CC#N): 696 nm
absorption maximum (in CCO): 688 nm
absorption maximum (in CO): 690 nm
absorption maximum (in ClC(Cl)Cl): 702 nm
Compound: CCNc1cc2c(cc1C)C(c1ccccc1C(=O)O)=C1CCCC(/C=C/C3=[N+](C)c4ccccc4C3(C)C)=C1O2

absorption maximum (in ClCCl): 465 nm
Compound: F[B-]1(F)N(c2ccccc2)c2cccc3ccc4ccc[n+]1c4c23

absorption maximum (in C1CCOC1): 358 nm
Compound: N#Cc1c(N2CCCC2)cc(-c2ccccc2)c2c1C(=O)c1ccccc1-2

absorption maximum (in ClC(Cl)Cl): 351 nm
Compound: CC(=O)OCCN1C(=O)c2cccc3c(Oc4ccc(C#N)cc4)ccc(c23)C1=O

absorption maximum (in ClC(Cl)Cl): 376 nm
Compound: c1ccc(-c2c3c(nc4ccccc24)-c2cc4c(cc2CC3)-c2nc3ccccc3c(-c3ccccc3)c2CC4)cc1

absorption maximum (in CCO): 330 nm
Compound: O=C(O)CCNc1cccc2ccccc12

absorption maximum (in C1CCCCC1): 316 nm
Compound: C[Si](C)(C)C#Cc1cccc2ccccc12

absorption maximum (in C1COCCO1): 379 nm
absorption maximum (in CC#N): 379 nm
absorption maximum (in CCO): 381 nm
absorption maximum (in CO): 382 nm
absorption maximum (in ClCCCl): 380 nm
absorption maximum (in O): 386 nm
Compound: Cc1cccc2nc3c(=O)[nH]c(=O)[nH]c3nc12

absorption maximum (in ClCCl): 370 nm
Compound: CCOC(=O)/N=c1/oc2cc(OC)ccc2cc1C#N

absorption maximum (in C1CCCCC1): 386 nm
absorption maximum (in CC#N): 409 nm
absorption maximum (in CCO): 429 nm
absorption maximum (in c1ccccc1): 395 nm
Compound: Nc1ccc2c(c1)-c1ccccc1C2=O

absorption maximum (in CC#N): 300 nm
Compound: O=c1ccc2ccc(C#Cc3ccccc3)cc2o1

absorption maximum (in ClC(Cl)Cl): 323 nm
Compound: CN(C)c1ccc(-c2ccc(-c3cc(-c4ccccc4)c(-c4ccccc4)c(-c4ccccc4)c3-c3ccccc3)cc2)cc1
